Laboratory results taken from patent US8680139B2 (Progenra, priority 2009, dated 2014).
pEC50: −log10 of the molar value.

Target: T1, USP7 (Homo sapiens, UniProt Q93009)
T1 construct: full length human USP7 protein; made in house
Test: USP7, Ub-PLA2 assay
Type: biochemical
Conditions: Ub-PLA2 / NBD C6-HPC fluorescence, 30 minute preincubation; read-out: EC50 for inhibition of USP7
Summary of the method: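 Activity read as fluorescence in a Ub-PLA2 format, with percent inhibition calculated within each plate against DMSO (uninhibited) and NEM (background) wells. Vehicle was 100% DMSO.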

T1 sequence (Q93009 whole entry): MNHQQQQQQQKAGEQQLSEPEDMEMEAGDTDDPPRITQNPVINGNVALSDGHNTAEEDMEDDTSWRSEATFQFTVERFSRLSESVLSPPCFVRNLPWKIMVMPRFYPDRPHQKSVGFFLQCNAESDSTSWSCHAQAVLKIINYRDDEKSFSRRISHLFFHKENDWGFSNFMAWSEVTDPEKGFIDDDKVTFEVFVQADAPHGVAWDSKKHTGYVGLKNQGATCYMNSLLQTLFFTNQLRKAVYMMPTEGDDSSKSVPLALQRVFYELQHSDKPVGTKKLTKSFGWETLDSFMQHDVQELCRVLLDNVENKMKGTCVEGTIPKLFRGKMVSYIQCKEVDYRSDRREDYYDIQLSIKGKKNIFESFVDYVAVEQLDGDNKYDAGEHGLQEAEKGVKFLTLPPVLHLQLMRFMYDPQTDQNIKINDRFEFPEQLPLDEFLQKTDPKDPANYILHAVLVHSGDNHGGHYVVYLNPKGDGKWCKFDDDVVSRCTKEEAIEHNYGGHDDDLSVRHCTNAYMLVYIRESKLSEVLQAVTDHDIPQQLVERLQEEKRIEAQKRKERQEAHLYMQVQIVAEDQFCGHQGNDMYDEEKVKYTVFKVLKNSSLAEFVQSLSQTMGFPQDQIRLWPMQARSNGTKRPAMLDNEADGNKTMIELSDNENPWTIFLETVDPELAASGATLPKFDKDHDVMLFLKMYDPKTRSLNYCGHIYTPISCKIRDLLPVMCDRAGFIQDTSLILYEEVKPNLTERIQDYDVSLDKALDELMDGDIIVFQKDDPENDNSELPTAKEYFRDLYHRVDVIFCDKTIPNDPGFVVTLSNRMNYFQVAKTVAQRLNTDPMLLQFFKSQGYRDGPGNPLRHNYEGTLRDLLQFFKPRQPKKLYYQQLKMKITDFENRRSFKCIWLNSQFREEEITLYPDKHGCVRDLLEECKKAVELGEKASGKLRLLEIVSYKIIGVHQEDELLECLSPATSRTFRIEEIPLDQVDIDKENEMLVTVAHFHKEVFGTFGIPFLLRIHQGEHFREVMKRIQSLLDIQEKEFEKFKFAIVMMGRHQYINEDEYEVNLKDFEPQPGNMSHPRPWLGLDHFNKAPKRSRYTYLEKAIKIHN

Row | Compound | pEC50
1 | O=C(NCCC1CCN(Cc2ccccc2)C1)c1cc([N+](=O)[O-])c(Sc2c(Cl)cncc2Cl)s1 (stereo not shown) [Example 84, N-(2-(1-benzylpyrrolidin-3-yl)ethyl)-5-((3,5-dichloropyridin-4-yl)thio)-4-nitrothiophene-2-carboxamide] | < 5.00
2 | CN(C)c1cccc(CNC(=O)c2cc([N+](=O)[O-])c(Sc3c(Cl)cncc3Cl)s2)c1 [Example 146, 5-((3,5-dichloropyridin-4-yl)thio)-N-(3-(dimethylamino)benzyl)-4-nitrothiophene-2-carboxamide] | ≥ 6.00
3 | Cn1nccc1NC(=O)c1cc([N+](=O)[O-])c(Sc2c(Cl)cncc2Cl)s1 [Example 167, 5-((3,5-dichloropyridin-4-yl)thio)-N-(1-methyl-1H-pyrazol-5-yl)-4-nitrothiophene-2-carboxamide] | ≥ 6.00
4 | O=C1COc2ccc(Sc3sc(C(=O)Nc4cc(C5CC5)n[nH]4)cc3[N+](=O)[O-])cc2N1 [Example 248, N-(3-cyclopropyl-1H-pyrazol-5-yl)-4-nitro-5-((3-oxo-3,4-dihydro-2H-benzo[b][1,4]oxazin-6-yl)thio)thiophene-2-carboxamide] | 5.00 to 6.00
5 | O=C(NCCN1CCN(Cc2ccccc2)CC1)c1cc([N+](=O)[O-])c(Sc2c(Cl)cncc2Cl)s1 [Example 117, N-(2-(4-benzylpiperazin-1-yl)ethyl)-5-((3,5-dichloropyridin-4-yl)thio)-4-nitrothiophene-2-carboxamide] | ≥ 6.00
6 | COC(=O)c1cc([N+](=O)[O-])c(Oc2c(Cl)cncc2Cl)s1 [Example 258, Methyl 5-((3,5-dichloropyridin-4-yl)oxy)-4-nitrothiophene-2-carboxylate] | 5.00 to 6.00
7 | O=C(Nc1ccc(O)cc1)c1cc([N+](=O)[O-])c(Sc2c(Cl)cncc2Cl)s1 [Example 181, 5-((3,5-dichloropyridin-4-yl)thio)-N-(4-hydroxyphenyl)-4-nitrothiophene-2-carboxamide] | ≥ 6.00
8 | O=C(NC1CCCNC1=O)c1cc([N+](=O)[O-])c(Sc2c(Cl)cncc2Cl)s1 (stereo not shown) [Example 95, 5-((3,5-dichloropyridin-4-yl)thio)-4-nitro-N-(2-oxopiperidin-3-yl)thiophene-2-carboxamide] | 5.00 to 6.00
9 | CSc1cccc(CN(C)C(=O)c2cc([N+](=O)[O-])c(Sc3c(Cl)cncc3Cl)s2)c1 [Example 127, 5-((3,5-dichloropyridin-4-yl)thio)-N-methyl-N-(3-(methylthio)benzyl)-4-nitrothiophene-2-carboxamide] | ≥ 6.00
10 | O=C(NCCc1ccc(F)cc1)c1cc([N+](=O)[O-])c(Sc2c(Cl)cncc2Cl)s1 [Example 120, 5-((3,5-dichloropyridin-4-yl)thio)-N-(4-fluorophenethyl)-4-nitrothiophene-2-carboxamide] | ≥ 6.00
11 | O=C(NC1CCNC1)c1cc([N+](=O)[O-])c(Sc2c(Cl)cncc2Cl)s1 (stereo not shown) [Example 195, 5-((3,5-dichloropyridin-4-yl)thio)-4-nitro-N-(pyrrolidin-3-yl)thiophene-2-carboxamide] | ≥ 6.00
12 | CC(=O)c1cc([N+](=O)[O-])c(Sc2ccc(Br)cc2)s1 [Example 12, 1-[5-(4-Bromophenylsulfanyl)-4-nitro-2-thienyl]ethanone] | 5.00 to 6.00
13 | N#Cc1cc(C(=O)Nc2cnc3ccccc3c2)sc1Sc1c(Cl)cncc1Cl [Example 207, 4-cyano-5-((3,5-dichloropyridin-4-yl)thio)-N-(quinolin-3-yl)thiophene-2-carboxamide] | 5.00 to 6.00
14 | O=C(NCC(=O)N1CCC(O)CC1)c1cc([N+](=O)[O-])c(Sc2c(Cl)cncc2Cl)s1 [Example 211, 5-((3,5-dichloropyridin-4-yl)thio)-N-(2-(4-hydroxypiperidin-1-yl)-2-oxoethyl)-4-nitrothiophene-2-carboxamide] | 5.00 to 6.00
15 | CC(=O)c1cc([N+](=O)[O-])c(Sc2ccccc2C(F)(F)F)s1 [Example 4, 1-{4-Nitro-5-[2-(trifluoromethyl)phenylsulfanyl]-2-thienyl}ethanone] | 5.00 to 6.00
16 | CNC(=O)c1cc([N+](=O)[O-])c(Sc2cccc(Cl)c2Cl)s1 [Example 42, 5-(2,3-dichlorophenylsulfanyl)-N-methyl-4-nitrothiophene-2-carboxamide] | 5.00 to 6.00
17 | O=C(NCCOc1ccccc1)c1cc([N+](=O)[O-])c(Sc2c(Cl)cncc2Cl)s1 [Example 54, 5-((3,5-dichloropyridin-4-yl)thio)-4-nitro-N-(2-phenoxyethyl)thiophene-2-carboxamide] | 5.00 to 6.00
18 | CC(O)c1cc([N+](=O)[O-])c(Sc2cccc(Cl)c2Cl)s1 (stereo not shown) [Example 19, 1-[5-(2,3-dichlorophenyl)sulfanyl-4-nitro-2-thienyl]ethanol] | < 5.00
19 | O=C(NC12CC3CC(CC(C3)C1)C2)c1cc([N+](=O)[O-])c(Sc2c(Cl)cncc2Cl)s1 [Example 76, N-((3s,5s,7s)-adamantan-1-yl)-5-((3,5-dichloropyridin-4-yl)thio)-4-nitrothiophene-2-carboxamide] | < 5.00
20 | CN1CCC(NC(=O)Nc2cc([N+](=O)[O-])c(Sc3c(Cl)cncc3Cl)s2)CC1 [Example 270, 1-(5-((3,5-dichloropyridin-4-yl)thio)-4-nitrothiophen-2-yl)-3-(1-methylpiperidin-4-yl)urea] | 5.00 to 6.00
21 | CN(C)CCNC(=O)c1cc([N+](=O)[O-])c(Sc2c(Cl)cncc2Cl)s1 [Example 48, 5-[(3,5-dichloro-4-pyridyl)sulfanyl]-N-(2-dimethylaminoethyl)-4-nitro-thiophene-2-carboxamide] | 5.00 to 6.00
22 | CC1(C)CC(NC(=O)c2cc([N+](=O)[O-])c(Sc3c(Cl)cncc3Cl)s2)CC(C)(C)N1 [Example 178, 5-((3,5-dichloropyridin-4-yl)thio)-4-nitro-N-(2,2,6,6-tetramethylpiperidin-4-yl)thiophene-2-carboxamide] | ≥ 6.00
23 | CC1(C)CCN(CCCNC(=O)c2cc([N+](=O)[O-])c(Sc3c(Cl)cncc3Cl)s2)CC1 [Example 229, 5-((3,5-dichloropyridin-4-yl)thio)-N-(3-(4,4-dimethylpiperidin-1-yl)propyl)-4-nitrothiophene-2-carboxamide] | ≥ 6.00
24 | COc1cncc(CNC(=O)c2cc([N+](=O)[O-])c(Sc3c(Cl)cncc3Cl)s2)c1 [Example 239, 5-((3,5-dichloropyridin-4-yl)thio)-N-((5-methoxypyridin-3-yl)methyl)-4-nitrothiophene-2-carboxamide] | ≥ 6.00
25 | CC(=O)c1cc([N+](=O)[O-])c(Sc2nccn2C)s1 [Example 15, 1-[5-(1-methylimidazol-2-yl)sulfanyl-4-nitro-2-thienyl]ethanone] | 5.00 to 6.00
26 | O=C(NCCc1ccccn1)c1cc([N+](=O)[O-])c(Sc2c(Cl)cncc2Cl)s1 [Example 109, 5-((3,5-dichloropyridin-4-yl)thio)-4-nitro-N-(2-(pyridin-2-yl)ethyl)thiophene-2-carboxamide] | ≥ 6.00
27 | CN1CCC(NC(=O)c2sc(Sc3c(Cl)cncc3Cl)c(C#N)c2-c2ccccc2)CC1 [Example 247, 4-cyano-5-((3,5-dichloropyridin-4-yl)thio)-N-(1-methylpiperidin-4-yl)-3-phenylthiophene-2-carboxamide] | 5.00 to 6.00
28 | CN1CCC(NC(=O)c2cc([N+](=O)[O-])c(Oc3c(Cl)cncc3Cl)s2)CC1 [Example 259, 5-((3,5-dichloropyridin-4-yl)oxy)-N-(1-methylpiperidin-4-yl)-4-nitrothiophene-2-carboxamide] | < 5.00
